Source: patent publication US20240318182A1, “METHODS OF TREATING OR PREVENTING SPINAL MUSCULAR ATROPHY” (BIOGEN MA INC., priority 2019, published 2024)

Assays:
[1] = human, in vivo
Procedure: In studies to explore the relationship between nusinersen exposure and clinical response, data from subjects with infantile-onset SMA (subjects <6 months of age at diagnosis or symptom onset) were used. Analyses were conducted to characterize a quantitative PK/PD relationship for nusinersen and to determine if higher nusinersen exposure is associated with additional efficacy in the infantile-onset SMA population.

pNf-H = test: Plasma pNf-H biomarker in nusinersen clinical trials; format: in vivo, human; details: SMA types 1, 2 and presymptomatic infants
Excerpt: In nusinersen clinical trials with SMA types 1, 2 and presymptomatic infants, plasma pNf-H differentiated SMA individuals from healthy controls. […] Thus assessing the levels of neurofilament (e.g., pNf-H and/or NfL) can be a helpful biomarker prior or during treatment.

[2] = test system: subjects with infantile-onset SMA; test: Exposure-response and motor function / motor milestones in nusinersen clinical studies; format: in vivo, human
Procedure: During the nusinersen clinical development program, an exploratory exposure-response analysis was conducted using data for 14 subjects with infantile-onset SMA who received nusinersen. […] All subjects received maintenance doses of 12 mg every 4 months after Day 85. Separation of the response curves for the 2 cohorts began around Day 29 and became wider over the course of the study.

[3] = test system: subjects with infantile-onset SMA; test: PK/PD (Emax) model of CSF Ctrough versus change from baseline in CHOP-INTEND; set-up: species or system human; details: model projection
Excerpt: Dashed (long), solid, and dashed (shorter) line represents the predicted PK/PD relationship when Emax was fixed at 10, 25, and 40, respectively. The observed data are divided based on 10 quantiles of CSF Ctrough values. The empty and filled circles represent the mean observed and predicted change in CHOP-INTEND from baseline, respectively.

nonhuman primate = test: Nonhuman primate safety studies; format: in vivo

nusinersen
maximum mean [SD] CSF Ctrough [1]: 31.3 [24.8] ng/mL
plasma pNf-H after treatment initiation (pNf-H): rapid decline followed by stabilization
attainment of motor milestones ([2]; 12 mg loading doses versus 6 mg loading doses on Days 1, 15, 85, infantile-onset SMA): earlier and greater improvement
correlation between nusinersen CSF exposure and motor function ([2]; 14 subjects with infantile-onset SMA, exploratory exposure-response analysis): statistically significant positive correlation
correlation between CSF Ctrough and total motor milestones scores ([2]; infantile- or later-onset SMA, 12 mg as 4 loading doses then every 4 months, preliminary analysis, data not shown): positive correlation
improvement in motor function ([2]; more frequent dosing: 12 mg loading Days 1, 15, 29, 64, 12 mg maintenance every 4 months, infantile-onset SMA): Greater improvement
CSF Ctrough that will achieve 90% of the maximum observed response [3]: 23 ng/mL
safety of 28 and 50 mg doses (nonhuman primate): support the use of these doses
